ChEMBL document CHEMBL5338820, “Discovery and Design of Novel Cyclic Peptides as Specific Inhibitors Targeting CCN2 and Disrupting CCN2/EGFR Interaction for Kidney Fibrosis Treatment” (J Med Chem, 2023)
pKd: −log10 of the molar value. Each block holds one compound with its values, some of them ahead of it. Active and inactive are the calls of the source. No cut-off for these calls is given here. Peptide text beside a SMILES is read from it.

How the values were obtained:
Mus musculus [1] = assay: Antifibrotic activity against Unilateral ureteric obstruction ligation induced C57BL/6J mouse kidney fibrosis model assessed as reduction of collagen formation at 250 microg/kg,ip administrated for 14 days by […] staining based analysis; assay type: functional, organism-based; conditions: dose 250.0 µg/kg, time 14.0 day
Mus musculus [2] = assay: Antifibrotic activity against Unilateral ureteric obstruction ligation induced C57BL/6J mouse kidney fibrosis model assessed as downregulation of EGFR phosphorylation at 250 microg/kg,ip administrated for 14 days by Western blotting analysis; assay type: functional, organism-based; conditions: dose 250.0 µg/kg, time 14.0 day
Mus musculus [3] = assay: Antifibrotic activity against Unilateral ureteric obstruction ligation induced C57BL/6J mouse kidney fibrosis model assessed as downregulation of STAT3 phosphorylation at 250 microg/kg,ip administrated for 14 days by Western blotting analysis; assay type: functional, organism-based; conditions: dose 250.0 µg/kg, time 14.0 day
Mus musculus [4] = assay: Antifibrotic activity against Unilateral ureteric obstruction ligation induced C57BL/6J mouse kidney fibrosis model assessed as reduction of renal tubular injury at 250 microg/kg,ip administrated for 14 days by hematoxylin and eosin staining based analysis; assay type: functional, organism-based; conditions: dose 250.0 µg/kg, time 14.0 day
[5] = target: T1, CCN family member 2 (Homo sapiens) (UniProt P29279); assay: Inhibition of recombinant human CCN2 CT domain expressed in human […] cells assessed as reduction in fibronectin synthesis at 100 uM incubated for 24 hrs by Western blotting assay; assay type: cell-based
T1 sequence (whole entry): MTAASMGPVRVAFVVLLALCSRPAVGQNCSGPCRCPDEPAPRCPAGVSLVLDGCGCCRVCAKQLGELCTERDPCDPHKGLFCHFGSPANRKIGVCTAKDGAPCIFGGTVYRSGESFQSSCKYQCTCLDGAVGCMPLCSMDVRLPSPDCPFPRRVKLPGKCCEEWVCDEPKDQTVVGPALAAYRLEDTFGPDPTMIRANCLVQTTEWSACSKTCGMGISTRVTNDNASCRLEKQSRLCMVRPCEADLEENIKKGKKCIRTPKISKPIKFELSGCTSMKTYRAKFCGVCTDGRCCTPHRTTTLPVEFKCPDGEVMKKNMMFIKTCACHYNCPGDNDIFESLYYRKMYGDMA

[6] = Toxicity in Unilateral ureteric obstruction C57BL/6J mouse model assessed as change in food consumption at 250 microg/kg,ip administrated for 14 days; conditions: in vivo, 0.25 mg/kg, 336 h, dose 250 µg/kg, time 14 day
Mus musculus [7] = assay: Antifibrotic activity against Unilateral ureteric obstruction ligation induced C57BL/6J mouse kidney fibrosis model assessed as downregulation of fibronectin synthesis at 250 microg/kg,ip administrated for 14 days by Western blotting analysis; assay type: functional, organism-based; conditions: dose 250.0 µg/kg, time 14.0 day
CCN family member 2 = target: T2, CCN family member 2 (Homo sapiens, UniProt P29279); assay: Binding affinity to His-tagged full length human CCN2 CT domain assessed as dissociation constant by isothermal titration calorimetry assay
T2 sequence (P29279 whole entry): T1 sequence (whole entry)

Mus musculus [8] = assay: Antifibrotic activity against Unilateral ureteric obstruction ligation induced C57BL/6J mouse kidney fibrosis model assessed as reduction of inflammatory infiltration at 250 microg/kg,ip administrated for 14 days by hematoxylin and eosin staining based analysis; assay type: functional, organism-based; conditions: dose 250.0 µg/kg, time 14.0 day
[9] = Toxicity in Unilateral ureteric obstruction C57BL/6J mouse model assessed as change in body weight at 250 microg/kg,ip administrated for 14 days; conditions: in vivo, 0.25 mg/kg, 336 h, dose 250 µg/kg, time 14 day
CCN2-EGFR (Homo sapiens) [10] = target: T3, CCN2-EGFR (Homo sapiens) (UniProt P00533+P29279); assay: Inhibition of His-tagged full length human CCN2 FL domain/human Fc-tagged EGFR protein-protein interaction using TMB as chromogenic substrate at 100 uM incubated for 140 mins by microplate reader assay relative to control
[11] = Toxicity in Unilateral ureteric obstruction C57BL/6J mouse model assessed as change in hair color at 250 microg/kg,ip administrated for 14 days; conditions: in vivo, 0.25 mg/kg, 336 h, dose 250 µg/kg, time 14 day
[12] = Toxicity in Unilateral ureteric obstruction C57BL/6J mouse model assessed as change in behaviour at 250 microg/kg,ip administrated for 14 days; conditions: in vivo, 0.25 mg/kg, 336 h, dose 250 µg/kg, time 14 day
[13] = target: T1, CCN family member 2 (Homo sapiens); assay: Inhibition of recombinant human CCN2 FL domain expressed in human […] cells assessed as reduction in STAT3 phosphorylation at 100 uM incubated for 24 hrs by Western blotting assay; assay type: cell-based
[14] = target: T1, CCN family member 2 (Homo sapiens); assay: Inhibition of recombinant human CCN2 CT domain expressed in human […] cells assessed as reduction in COL1A1 synthesis at 100 uM incubated for 24 hrs by Western blotting assay; assay type: cell-based
CCN2-EGFR (Homo sapiens) [15] = target: T3, CCN2-EGFR (Homo sapiens); assay: Inhibition of His-tagged full length human CCN2 CT domain/human Fc-tagged EGFR protein-protein interaction using TMB as chromogenic substrate at 100 uM incubated for 140 mins by microplate reader assay relative to control
Mus musculus [16] = assay: Antifibrotic activity against Unilateral ureteric obstruction ligation induced C57BL/6J mouse kidney fibrosis model assessed as downregulation of COL1A1 synthesis at 250 microg/kg,ip administrated for 14 days by Western blotting analysis; assay type: functional, organism-based; conditions: dose 250.0 µg/kg, time 14.0 day
[17] = target: T1, CCN family member 2 (Homo sapiens); assay: Inhibition of recombinant human CCN2 FL domain expressed in human HK-1 cells assessed as reduction in fibronectin synthesis at 20 uM incubated for 24 hrs by Western blotting assay; assay type: cell-based
[18] = Toxicity in Unilateral ureteric obstruction C57BL/6J mouse model assessed as change in food consumption at 50 microg/kg,ip administrated for 14 days; conditions: in vivo, 0.05 mg/kg, 336 h, dose 50 µg/kg, time 14 day
[19] = target: T1, CCN family member 2 (Homo sapiens); assay: Inhibition of recombinant human CCN2 FL domain expressed in human […] cells assessed as reduction in COL1A1 synthesis at 20 uM incubated for 24 hrs by Western blotting assay; assay type: cell-based
[20] = AUC (0-t) in Sprague-Dawley rat at 1 mg/kg,SC measured upto 48 hrs by LC-MS/MS analysis; assay type: ADME, organism-based; design: time < 48 hrs, dose 1 mg/kg, route sc; conditions: in vivo
[21] = Toxicity in Unilateral ureteric obstruction C57BL/6J mouse model assessed as change in hair color at 50 microg/kg,ip administrated for 14 days; conditions: in vivo, 0.05 mg/kg, 336 h, dose 50 µg/kg, time 14 day
[22] = target: T1, CCN family member 2 (Homo sapiens); assay: Inhibition of recombinant human CCN2 FL domain expressed in human […] cells assessed as reduction in COL1A1 synthesis at 4 to 100 uM incubated for 24 hrs by Western blotting assay; assay type: cell-based; conditions: dose 4-100 µM
Mus musculus [23] = assay: Antifibrotic activity against Unilateral ureteric obstruction ligation induced C57BL/6J mouse kidney fibrosis model assessed as downregulation of fibronectin synthesis at 50 microg/kg,ip administrated for 14 days by Western blotting analysis; assay type: functional, organism-based; conditions: dose 50.0 µg/kg, time 14.0 day
Mus musculus [24] = assay: Antifibrotic activity against Unilateral ureteric obstruction ligation induced C57BL/6J mouse kidney fibrosis model assessed as downregulation of EGFR phosphorylation at 50 microg/kg,ip administrated for 14 days by Western blotting analysis; assay type: functional, organism-based; conditions: dose 50.0 µg/kg, time 14.0 day
[25] = Toxicity in Unilateral ureteric obstruction C57BL/6J mouse model assessed as change in behaviour at 50 microg/kg,ip administrated for 14 days; conditions: in vivo, 0.05 mg/kg, 336 h, dose 50 µg/kg, time 14 day
[26] = Tmax in Sprague-Dawley rat at 1 mg/kg,SC measured upto 48 hrs by LC-MS/MS analysis; assay type: ADME, organism-based; conditions: in vivo
[27] = Toxicity in Unilateral ureteric obstruction C57BL/6J mouse model assessed as change in body weight at 50 microg/kg,ip administrated for 14 days; conditions: in vivo, 0.05 mg/kg, 336 h, dose 50 µg/kg, time 14 day
[28] = target: T1, CCN family member 2 (Homo sapiens); assay: Inhibition of recombinant human CCN2 FL domain expressed in human […] cells assessed as reduction in fibronectin synthesis at 4 to 100 uM incubated for 24 hrs by Western blotting assay; assay type: cell-based; conditions: dose 4-100 µM
[29] = Cmax in Sprague-Dawley rat at 1 mg/kg,SC measured upto 48 hrs by LC-MS/MS analysis; assay type: ADME, organism-based; design: time < 48 hrs, dose 1 mg/kg, route sc; conditions: in vivo
Mus musculus [30] = assay: Antifibrotic activity against Unilateral ureteric obstruction ligation induced C57BL/6J mouse kidney fibrosis model assessed as reduction of renal tubular injury at 50 microg/kg,ip administrated for 14 days by hematoxylin and eosin staining based analysis; assay type: functional, organism-based; conditions: dose 50.0 µg/kg, time 14.0 day
Mus musculus [31] = assay: Antifibrotic activity against Unilateral ureteric obstruction ligation induced C57BL/6J mouse kidney fibrosis model assessed as downregulation of COL1A1 synthesis at 50 microg/kg,ip administrated for 14 days by Western blotting analysis; assay type: functional, organism-based; conditions: dose 50.0 µg/kg, time 14.0 day
Mus musculus [32] = assay: Antifibrotic activity against Unilateral ureteric obstruction ligation induced C57BL/6J mouse kidney fibrosis model assessed as downregulation of STAT3 phosphorylation at 50 microg/kg,ip administrated for 14 days by Western blotting analysis; assay type: functional, organism-based; conditions: dose 50.0 µg/kg, time 14.0 day
Mus musculus [33] = assay: Antifibrotic activity against Unilateral ureteric obstruction ligation induced C57BL/6J mouse kidney fibrosis model assessed as reduction of inflammatory infiltration at 50 microg/kg,ip administrated for 14 days by hematoxylin and eosin staining based analysis; assay type: functional, organism-based; conditions: dose 50.0 µg/kg, time 14.0 day
Mus musculus [34] = assay: Antifibrotic activity against Unilateral ureteric obstruction ligation induced C57BL/6J mouse kidney fibrosis model assessed as reduction of collagen formation at 50 microg/kg,ip administrated for 14 days by […] staining based analysis; assay type: functional, organism-based; conditions: dose 50.0 µg/kg, time 14.0 day
[35] = Half life in Sprague-Dawley rat at 1 mg/kg,SC measured upto 48 hrs by LC-MS/MS analysis; assay type: ADME, organism-based; conditions: in vivo

T3 sequence (P00533 whole entry, looked up, one chain of several, the tested form may be a part): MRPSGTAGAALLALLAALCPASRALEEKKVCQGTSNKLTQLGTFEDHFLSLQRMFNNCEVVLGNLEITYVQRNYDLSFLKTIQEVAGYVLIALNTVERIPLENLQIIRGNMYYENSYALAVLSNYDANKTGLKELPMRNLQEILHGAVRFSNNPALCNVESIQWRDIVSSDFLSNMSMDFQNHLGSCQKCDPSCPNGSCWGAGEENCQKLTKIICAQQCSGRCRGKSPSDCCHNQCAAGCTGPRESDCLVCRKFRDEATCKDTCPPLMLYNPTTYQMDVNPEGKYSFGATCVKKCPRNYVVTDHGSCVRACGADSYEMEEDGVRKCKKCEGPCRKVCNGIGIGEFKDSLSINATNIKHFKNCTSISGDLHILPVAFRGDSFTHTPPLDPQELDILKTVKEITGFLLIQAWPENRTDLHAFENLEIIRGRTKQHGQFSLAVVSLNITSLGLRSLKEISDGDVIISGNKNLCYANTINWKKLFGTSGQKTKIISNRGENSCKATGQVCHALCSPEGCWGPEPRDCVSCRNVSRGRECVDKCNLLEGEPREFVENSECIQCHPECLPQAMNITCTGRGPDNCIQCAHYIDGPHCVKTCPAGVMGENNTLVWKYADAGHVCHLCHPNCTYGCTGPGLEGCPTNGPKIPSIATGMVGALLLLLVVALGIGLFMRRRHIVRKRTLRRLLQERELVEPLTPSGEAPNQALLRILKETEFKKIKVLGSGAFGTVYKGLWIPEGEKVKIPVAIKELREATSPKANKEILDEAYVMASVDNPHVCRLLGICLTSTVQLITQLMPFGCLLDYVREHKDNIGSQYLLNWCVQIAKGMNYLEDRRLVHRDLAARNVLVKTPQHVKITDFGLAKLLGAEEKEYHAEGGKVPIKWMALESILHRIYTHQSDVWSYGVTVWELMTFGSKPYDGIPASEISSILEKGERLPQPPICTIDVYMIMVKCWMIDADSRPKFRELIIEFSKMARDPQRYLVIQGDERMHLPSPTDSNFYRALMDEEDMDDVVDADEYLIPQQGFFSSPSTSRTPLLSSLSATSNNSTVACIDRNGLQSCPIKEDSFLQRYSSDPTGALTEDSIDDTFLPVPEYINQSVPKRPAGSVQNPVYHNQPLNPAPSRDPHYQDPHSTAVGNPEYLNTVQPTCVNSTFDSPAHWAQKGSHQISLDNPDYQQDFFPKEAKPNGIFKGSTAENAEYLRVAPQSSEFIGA

inhibition [5]: Active | pKd (CCN family member 2): 5.41 | inhibition (CCN2-EGFR (Homo sapiens) [10]): 62.3% | inhibition [13]: Active | inhibition [14]: Active | inhibition (CCN2-EGFR (Homo sapiens) [15]): 78.7%
SMILES: C[C@@H](O)[C@H](N)C(=O)N[C@@H](CCCCN)C(=O)N[C@@H](Cc1c[nH]cn1)C(=O)N[C@@H](CCCNC(=N)N)C(=O)N1CCC[C@H]1C(=O)N[C@@H](Cc1c[nH]c2ccccc12)C(=O)N[C@H](C(N)=O)[C@@H](C)O (H-TKHRPWT-NH2)
Activity (Mus musculus [1]): Active | Activity (Mus musculus [2]): Active | Activity (Mus musculus [3]): Active | Activity (Mus musculus [4]): Active | Activity [6]: Non-Toxic | Activity (Mus musculus [7]): Active | Activity (Mus musculus [8]): Active | Activity [9]: Non-Toxic | Activity [11]: Non-Toxic | Activity [12]: Non-Toxic | Activity (Mus musculus [16]): Active

inhibition [17]: Active | inhibition [19]: Active | inhibition [5]: Active | pKd (CCN family member 2): 5.51 | AUC(0-t) at 48 h [20]: 3030 ng·h/mL | inhibition [22]: Dose-Dependent Effect | Tmax [26]: 60 min | inhibition [28]: Dose-Dependent Effect | Cmax [29]: 1060 ng/mL | inhibition (CCN2-EGFR (Homo sapiens) [10]): 63.8% | inhibition [13]: Active | inhibition [14]: Active | inhibition (CCN2-EGFR (Homo sapiens) [15]): 76.7% | half-life [35]: 54 min
SMILES: C[C@@H](O)[C@@H]1NC(=O)[C@H](Cc2c[nH]c3ccccc23)NC(=O)[C@@H]2CCCN2C(=O)[C@H](CCCNC(=N)N)NC(=O)[C@H](Cc2c[nH]cn2)NC(=O)[C@H](CCCCN)NC(=O)[C@H]([C@@H](C)O)NC1=O (cyclo(HRPWTTK))
Activity [18]: Non-Toxic | Activity [21]: Non-Toxic | Activity (Mus musculus [23]): Active | Activity (Mus musculus [24]): Active | Activity [25]: Non-Toxic | Activity [27]: Non-Toxic | Activity (Mus musculus [30]): Active | Activity (Mus musculus [31]): Active | Activity (Mus musculus [32]): Active | Activity (Mus musculus [33]): Active | Activity (Mus musculus [34]): Active
